Measurements from PMC11054906 (Pharmaceuticals, 2024).

Legend:
[1] = set-up: method as in PMID 23940010, PMID 27312794, PMID 29251772, PMID 24964723; conditions: cited from earlier work
[2] = Population PK analysis (NLME, Monolix) of empagliflozin plasma concentrations from two phase 1 crossover studies; format: in vivo, healthy Korean subjects
From the text: Data from two clinical studies (NCT03849495 and NCT03848637) were used in this study to develop the PK model and conduct population PK analysis. Both of the studies were randomized, open-label, two-period, two-sequence, crossover studies comparing the PK characteristics, safety and tolerability profiles of the two study drugs in healthy Korean subjects. Healthy subjects aged between 19 and 50 years with BMIs of 18–27 kg/m^2 were recruited for both studies. Subjects without any clinically significant medical history, and without any clinically significant findings in physical examinations, vital signs, 12-lead electrocardiograms (ECG), and clinical laboratory test results were eligible for the studies. Subjects who could not abstain from alcohol, smoking, or drug use throughout the study were excluded. To ensure safety, subjects with any allergies to the study medications were also excluded. Adverse drug reactions were assessed throughout the study period, and the monitoring of physical examinations, vital signs, 12-lead ECG, and laboratory tests was also performed.
Demographic data, clinical laboratory data, and time–plasma concentration data were pooled to develop a population PK model.
Blood samples were collected before drug administration (0 h) and 0.33 h, 0.67 h, 1 h, 1.5 h, 2 h, 2.5 h, 3 h, 4 h, 6 h, 8 h, 10 h, 12 h, 24 h, 34 h, and 48 h after study’s drug administration in the first study. In the second study, blood samples were also collected at 3.5 h and 5 h. Thus, a total of 16 and 18 blood samples were collected from each healthy volunteer in the two clinical studies, respectively. […] In the second study, the plasma concentrations of empagliflozin were quantified by using liquid chromatography–mass spectrometry (LC–MS) equipped with API 4000 (SCIEX; multiple reaction monitoring, electrospray ionization, and positive SCIEX mode). All experiments adhered to the standards of good laboratory practice as described previously. The calibration ranges in these two studies were 2–1500 ng/mL and 0.5–150 ng/mL, respectively.
The population PK analysis was conducted using a nonlinear mixed effect (NLME) modeling method with Monolix® Suite 2021R1 (Lixoft, Antony, France). The stochastic approximation expectation maximization (SAEM) algorithm was implemented, and model qualification was performed using a likelihood ratio test, Bayesian information criterion (BIC), goodness-of-fit (GOF) diagnostic plots, and visual predictive checks (VPCs). Various compartment models with lag time, transit compartment, and Weibull absorption were established to construct the base PK model.
After the development of the base model, interindividual variability (IIV), interoccasion variability (IOV), and residual errors were added to the model. Because of the crossover study design, the random variation in the population PK parameters was described by both the IIV and IOV, with all the individual parameters considered to be log-normally distributed. IIV and IOV were sequentially implemented, and the parameters were subsequently removed or fixed at low values when converging to zero. The exponential random effects terms for the IIV and IOV are shown in Formulas (2) and (3), respectively. (2) Pi=θk×e^ηi where Pi represents the parameter value k from individual i and θk describes the population value of parameter k. ηi denotes the difference between Pi and θk. (3) Pi,occ=θk×e^ηi+Kkiq where Pi,occ is the individual parameter value k from individual i at occasion q that differs from the typical individual value by an additional random effect Kkiq. An occasion was characterized as the time period from the start of an infusion until the start of the next administration. ηki and Kkiq were assumed to be symmetrically distributed with a zero mean and a variance of σ^2 and γ^2, respectively. […]

[3] = 1000 bootstrap resampling, interindividual variability
[4] = 1000 bootstrap resampling, interoccasion variability
[5] = final model, oral single dose, both formulations pooled

SMILES: OC[C@H]1O[C@@H](c2ccc(Cl)c(Cc3ccc(O[C@H]4CCOC4)cc3)c2)[C@H](O)[C@@H](O)[C@@H]1O [empagliflozin, Empagliflozin]
- estimated Mtt ([1]; three transit compartment model): 30 min
- lag time (fixed) of lagged first-order oral absorption ([1]; two-compartment model): 0.5 h
- CL, median of bootstrap (95% CI) ([2]; 1000 bootstrap resampling): 8.21 (7.945–8.465) L/h
- Ka, median of bootstrap (95% CI) ([2]; 1000 bootstrap resampling): 0.25 (0.23–0.275) h^−1
- Ktr, median of bootstrap (95% CI) ([2]; 1000 bootstrap resampling): 8.94 (6.766–11.728) h^−1
- Mtt, median of bootstrap (95% CI) ([2]; 1000 bootstrap resampling): 0.64 (0.526–0.725) h
- Q, median of bootstrap (95% CI) ([2]; 1000 bootstrap resampling): 4.66 (3.979–5.456) L/h
- V1, median of bootstrap (95% CI) ([2]; 1000 bootstrap resampling): 0.64 (0–1.889) L
- V2, median of bootstrap (95% CI) ([2]; 1000 bootstrap resampling): 43.93 (41.255–47.171) L
- b (residual variability), median of bootstrap (95% CI) ([2]; 1000 bootstrap resampling): 0.16 (0.141–0.175)
- βCL_logWT, median of bootstrap (95% CI) ([2]; 1000 bootstrap resampling): 0.64 (0.366–0.926)
- βV2_logWT, median of bootstrap (95% CI) ([2]; 1000 bootstrap resampling): 0.54 (0.221–0.851)
- ωCL, median of bootstrap (95% CI) [2, 3]: 0.12 (0.101–0.141)
- ωKa, median of bootstrap (95% CI) [2, 3]: 0.16 (0.116–0.208)
- ωV2, median of bootstrap (95% CI) [2, 3]: 0.13 (0.1–0.172)
- γCL, median of bootstrap (95% CI) [2, 4]: 0.04 (0.025–0.06)
- γKa, median of bootstrap (95% CI) [2, 4]: 0.04 (0.023–0.062)
- γKtr, median of bootstrap (95% CI) [2, 4]: 1.11 (0.858–1.334)
- γMtt, median of bootstrap (95% CI) [2, 4]: 0.44 (0.359–0.528)
- b, residual variability (proportional error) ([2]; final model): 0.16
- βV2_logWT (effect of log-transformed body weight on V2) ([2]; final model, covariate coefficient): 0.57
- Ktr (transit rate constant), population value ([2]; final model, oral single dose 25 mg or 5 mg (with metformin 1000 mg), both formulations pooled): 9.19 h⁻¹
- CL (clearance), population value [2, 5]: 8.21 L/h
- Ka (absorption rate constant), population value [2, 5]: 0.26 h⁻¹
- Mtt (mean transit time for absorption), population value [2, 5]: 0.63 h
- V1, population value [2, 5]: 0.6 L
- Mtt (mean transit time) ([2]; final two-compartment transit model): 37.8 min
- number of transit compartments ([2]; from Formula (1), Mtt and Ktr of the final model): 4.79
- γCL, interoccasion variability ([2]; presented as SD (CV)): 4.3%
- γKa, interoccasion variability ([2]; presented as SD (CV)): 0.029 (2.90) %
- γKtr, interoccasion variability ([2]; presented as SD (CV)): 1.17 (171.20) %
- γMtt, interoccasion variability ([2]; presented as SD (CV)): 0.42 (43.92) %
- ωCL, interindividual variability ([2]; presented as SD (CV)): 0.12 (12.04) %
- ωV2, interindividual variability ([2]; presented as SD (CV)): 0.13 (13.06) %
